Experimental data as given in paper PMC9189845, “Structure–Activity Relationships of 8-Hydroxyquinoline-Derived Mannich Bases with Tertiary Amines Targeting Multidrug-Resistant Cancer” (Journal of Medicinal Chemistry, 2022).
Where two headings read alike, the source gives them in different places.

Legend:
A431 cells = experiment: PrestoBlue viability assay, A431 cells
MES-SA cells = experiment: PrestoBlue viability assay, MES-SA cells; details: for pIC50 value MES-SA: MES-SA cells, without TQ
A431-B1 cells = experiment: PrestoBlue viability assay, A431-B1 (A431-ABCB1) cells
MES-SA/Dx5 cells = experiment: PrestoBlue viability assay, MES-SA/Dx5 cells (MDR, P-gp positive); details: for SR_TQ: selectivity ratio MES-SA vs MES-SA/Dx5, with TQ; for SR: selectivity ratio MES-SA vs MES-SA/Dx5, without TQ; for pIC50 value MES-SA/Dx5: MES-SA/Dx5 cells, without TQ
[1] = Homo sapiens, A-431, 72 h, read-out: IC50 / µM A431, 72 h incubation
[2] = Homo sapiens, A-431, read-out: pIC50 A431, SARM figure (converted)
[3] = read-out: IC50 / µM A431, 72 h incubation
[4] = Homo sapiens, MES-SA, 72 h, read-out: IC50 / μM MES-SA, absence of TQ, 72 h incubation
[5] = Homo sapiens, MES-SA, read-out: IC50 / μM MES-SA (values in parentheses), presence of 1 μM P-gp inhibitor tariquidar (TQ)
[6] = Homo sapiens, MES-SA, read-out: pIC50 value MES-SA+TQ, MES-SA cells, with TQ (converted)
[7] = Homo sapiens, MES-SA, read-out: pIC50 value MES-SA, MES-SA cells, without TQ (converted)
[8] = read-out: pIC50 A431-B1, SARM figure (converted)
[9] = Homo sapiens, MES-SA/Dx5, 72 h, read-out: IC50 / μM MES-SA/Dx5, absence of TQ, 72 h incubation
[10] = Homo sapiens, MES-SA/Dx5, read-out: IC50 / μM MES-SA/Dx5 (values in parentheses), presence of 1 μM P-gp inhibitor tariquidar (TQ)
[11] = Homo sapiens, MES-SA/Dx5, read-out: pIC50 value MES-SA/Dx5 + TQ, MES-SA/Dx5 cells, with TQ (converted)
[12] = Homo sapiens, MES-SA/Dx5, read-out: pIC50 value MES-SA/Dx5, MES-SA/Dx5 cells, without TQ (converted)
[13] = read-out: IC50 / μM MES-SA, absence of TQ, 72 h incubation
[14] = read-out: IC50 / μM MES-SA/Dx5, absence of TQ, 72 h incubation

| Structure (SMILES) | IC50 (MES-SA cells; [4]) | IC50 (MES-SA cells; [7]) | IC50 (MES-SA/Dx5 cells; [9]) | IC50 (MES-SA/Dx5 cells; [12]) | SR_TQ (MES-SA/Dx5 cells) | SR (MES-SA/Dx5 cells) | pIC50 value MES-SA (MES-SA cells) | IC50 (MES-SA cells; [13]) | pIC50 value MES-SA/Dx5 (MES-SA/Dx5 cells) | IC50 (MES-SA/Dx5 cells; [14]) | also measured |
| --- | --- | --- | --- | --- | --- | --- | --- | --- | --- | --- | --- |
| CCN(CC)Cc1ccc2cccnc2c1O [Compound 1] | 7.35 ± 1.28 µM | 7.24 µM | 1.64 ± 0.24 µM | 1.62 µM | 1.69 | 4.49 |  |  |  |  | IC50 (A431 cells; [1]): 14.8 ± 0.41 µM; IC50 (A431 cells; [2]): 13.5 µM; IC50 (A431 cells; [3]): 13.4 ± 0.18 µM; IC50 (MES-SA cells; [5]): 5.15 µM; IC50 (MES-SA cells; [6]): 5.13 µM; IC50 (A431-B1 cells; 72 h, read-out: IC50 / µM A431-B1, 72 h incubation): 4.51 ± 0.73 µM; IC50 (A431-B1 cells; read-out: IC50 / µM A431-B1, 72 h incubation): 4.99 ± 0.52 µM; IC50 (A431-B1 cells; [8]): 5.01 µM; IC50 (MES-SA/Dx5 cells; [10]): 3.04 µM; IC50 (MES-SA/Dx5 cells; [11]): 3.02 µM |
| Oc1c(CN2CCCC2)ccc2cccnc12 [Compound 2] | 4.64 ± 0.82 µM | 4.57 µM | 1.47 ± 0.25 µM | 1.45 µM | 1.41 | 3.16 |  |  |  |  | IC50 (A431 cells; [1]): 18.2 ± 1.02 µM; IC50 (A431 cells; [2]): 16.6 µM; IC50 (A431 cells; [3]): 17.1 ± 4.65 µM; IC50 (MES-SA cells; [5]): 3.98 µM; IC50 (MES-SA cells; [6]): 3.98 µM; IC50 (A431-B1 cells; [8]): 3.16 µM; IC50 (MES-SA/Dx5 cells; [10]): 2.82 µM; IC50 (MES-SA/Dx5 cells; [11]): 2.82 µM |
| Oc1c(C(c2cccnc2)N2CCCC2)ccc2cccnc12 (stereo not shown) [Compound 85] | 41 µM | 40.7 µM | 23.3 µM | 23.4 µM |  | 1.76 |  |  |  |  | IC50 (A431-B1 cells; [8]): 52.5 µM |
| Cc1ccc(C(c2cc(Cl)c3cccnc3c2O)N2CCCC2)cc1 (stereo not shown) [Compound 91] | 13.2 ± 3.09 µM | 12.9 µM | 6.06 ± 2.21 µM | 5.62 µM | 3.8 | 2.18 |  |  |  |  | IC50 (MES-SA cells; [6]): 8.91 µM; IC50 (MES-SA/Dx5 cells; [11]): 2.34 µM |
| Oc1c(C(c2ccncc2)N2CCCCC2)ccc2cccnc12 (stereo not shown) [Compound 93] |  |  |  |  | 1.1 | 1.93 | 4.81 | 16.2 ± 4.33 µM | 5.08 | 8.39 ± 1.09 µM |  |
| Oc1c(C(c2cccs2)N2CCCCC2)ccc2cccnc12 (stereo not shown) [Compound 94] | 8.88 ± 0.93 µM | 8.91 µM | 11.6 ± 0.94 µM | 11.5 µM |  | 0.76 |  |  |  |  |  |
| Oc1c(C(c2ccccc2Cl)N2CCCCC2)ccc2cccnc12 (stereo not shown) [Compound 95] |  |  |  |  | 2.75 | 1.85 | 4.77 | 17.5 ± 4.45 µM | 5.04 | 9.45 ± 2.11 µM |  |
| CC1CCN(C(c2ccncc2)c2ccc3cccnc3c2O)CC1 (stereo not shown) [Compound 100] |  |  |  |  | 4.37 | 2.74 | 4.78 | 17.1 ± 3.89 µM | 5.21 | 6.24 ± 1.17 µM |  |
| Oc1c(C(c2ccccc2)N2CCOCC2)ccc2cccnc12 (stereo not shown) [Compound 102] | 21.4 ± 1.01 µM | 21.4 µM | 11.7 ± 1.15 µM | 11.5 µM |  | 1.84 |  |  |  |  |  |
| Oc1c(C(c2ccccn2)N2CCOCC2)ccc2cccnc12 (stereo not shown) [Compound 103] | 23.6 ± 3.13 µM | 23.4 µM | 14.6 ± 2.97 µM | 14.1 µM |  | 1.62 |  |  |  |  |  |
| Oc1c(C(c2ccncc2)N2CCOCC2)ccc2cccnc12 (stereo not shown) [Compound 104] | 15.2 ± 2.74 µM | 14.8 µM | 7.14 ± 1.26 µM | 7.08 µM | 1.45 | 2.12 |  |  |  |  | IC50 (MES-SA cells; [6]): 21.9 µM; IC50 (MES-SA/Dx5 cells; [11]): 15.1 µM |
| Oc1c(C(c2ccccc2Cl)N2CCOCC2)ccc2cccnc12 (stereo not shown) [Compound 105] |  |  |  |  |  | 1.13 | 4.73 | 18.45 ± 0.14 µM | 4.79 | 16.4 ± 1.02 µM |  |
| Oc1c(C(c2ccc(F)cc2)N2CCOCC2)ccc2cccnc12 (stereo not shown) [Compound 106] |  |  |  |  | 1.15 | 2.24 | 4.51 | 33.4 ± 13.2 µM | 4.86 | 14.9 ± 6.17 µM |  |
| COc1ccc(C(c2ccc3cccnc3c2O)N2CCOCC2)cc1 (stereo not shown) [Compound 107] |  |  |  |  |  | 1.29 | 4.69 | 20.3 ± 1.7 µM | 4.81 | 15.8 ± 2.97 µM |  |
| Oc1c(C(c2cccnc2)N2CCOCC2)cc(Cl)c2cccnc12 (stereo not shown) [Compound 109] | 51 ± 2.48 µM | 51.3 µM | 32.9 ± 7.06 µM | 32.4 µM |  | 1.55 |  |  |  |  |  |
| Oc1c(C(c2cccs2)N2CCOCC2)cc(Cl)c2cccnc12 (stereo not shown) [Compound 110] | 7.97 ± 1.01 µM | 7.94 µM | 14 ± 0.42 µM | 13.8 µM |  | 0.57 |  |  |  |  |  |
| CN1CCN(C(c2cccnc2)c2ccc3cccnc3c2O)CC1 (stereo not shown) [Compound 111] | 54.8 ± 3.66 µM | 55 µM | 35.9 ± 4.93 µM | 35.5 µM |  | 1.53 |  |  |  |  |  |
| CN1CCN(C(c2ccncc2)c2ccc3cccnc3c2O)CC1 (stereo not shown) [Compound 112] | 22.1 ± 2.7 µM | 21.9 µM | 11 ± 2.12 µM | 10.7 µM | 1.58 | 2.02 |  |  |  |  | IC50 (MES-SA cells; [6]): 32.4 µM; IC50 (MES-SA/Dx5 cells; [11]): 20.4 µM |
| CN1CCN(C(c2cccs2)c2ccc3cccnc3c2O)CC1 (stereo not shown) [Compound 113] | 12.8 ± 1.72 µM | 12.6 µM | 16.79 ± 0.08 µM | 16.6 µM |  | 0.76 |  |  |  |  |  |
| CCN1CCN(C(c2cccnc2)c2ccc3cccnc3c2O)CC1 (stereo not shown) [Compound 115] | 20.6 ± 1.85 µM | 20.4 µM | 10.3 ± 3.54 µM | 9.77 µM | 1.05 | 1.99 |  |  |  |  | IC50 (MES-SA cells; [6]): 24 µM; IC50 (MES-SA/Dx5 cells; [11]): 22.9 µM |
| CCN1CCN(C(c2cccs2)c2ccc3cccnc3c2O)CC1 (stereo not shown) [Compound 116] | 9.06 ± 0.23 µM | 9.12 µM | 14.2 ± 1.36 µM | 14.1 µM |  | 0.64 |  |  |  |  |  |
| CCN1CCN(C(c2ccccn2)c2cc(Cl)c3cccnc3c2O)CC1 (stereo not shown) [Compound 117] | 28.3 ± 2.32 µM | 28.2 µM | 24.4 ± 3.58 µM | 24 µM |  | 1.16 |  |  |  |  |  |
| CCN1CCN(C(c2cccnc2)c2cc(Cl)c3cccnc3c2O)CC1 (stereo not shown) [Compound 118] | 21.4 ± 0.84 µM | 21.4 µM | 23.1 ± 4.67 µM | 22.4 µM |  | 0.92 |  |  |  |  |  |
| OCCN1CCN(C(c2ccccc2)c2ccc3cccnc3c2O)CC1 (stereo not shown) [Compound 119] |  |  |  |  | 1.7 | 1.53 | 4.69 | 20.7 ± 0.97 µM | 4.88 | 13.5 ± 2.55 µM |  |
| Oc1c(C(c2ccccn2)N2CCN(c3ccccn3)CC2)ccc2cccnc12 (stereo not shown) [Compound 121] |  |  |  |  |  | 1.81 | 4.39 | 40.9 ± 2.86 µM | 4.65 | 22.6 ± 2.85 µM |  |
